The target in this assay is T1, CPS1 (Homo sapiens, UniProt P31327).
T1 construct: The full length, human CPS1 gene was cloned into pFastBac HTA; His6 (from the pFastBac HTA vector); made in house; host or cells: SF21 insect cells (baculovirus, Bac-to-bac)
T1 sequence (P31327 39-1500): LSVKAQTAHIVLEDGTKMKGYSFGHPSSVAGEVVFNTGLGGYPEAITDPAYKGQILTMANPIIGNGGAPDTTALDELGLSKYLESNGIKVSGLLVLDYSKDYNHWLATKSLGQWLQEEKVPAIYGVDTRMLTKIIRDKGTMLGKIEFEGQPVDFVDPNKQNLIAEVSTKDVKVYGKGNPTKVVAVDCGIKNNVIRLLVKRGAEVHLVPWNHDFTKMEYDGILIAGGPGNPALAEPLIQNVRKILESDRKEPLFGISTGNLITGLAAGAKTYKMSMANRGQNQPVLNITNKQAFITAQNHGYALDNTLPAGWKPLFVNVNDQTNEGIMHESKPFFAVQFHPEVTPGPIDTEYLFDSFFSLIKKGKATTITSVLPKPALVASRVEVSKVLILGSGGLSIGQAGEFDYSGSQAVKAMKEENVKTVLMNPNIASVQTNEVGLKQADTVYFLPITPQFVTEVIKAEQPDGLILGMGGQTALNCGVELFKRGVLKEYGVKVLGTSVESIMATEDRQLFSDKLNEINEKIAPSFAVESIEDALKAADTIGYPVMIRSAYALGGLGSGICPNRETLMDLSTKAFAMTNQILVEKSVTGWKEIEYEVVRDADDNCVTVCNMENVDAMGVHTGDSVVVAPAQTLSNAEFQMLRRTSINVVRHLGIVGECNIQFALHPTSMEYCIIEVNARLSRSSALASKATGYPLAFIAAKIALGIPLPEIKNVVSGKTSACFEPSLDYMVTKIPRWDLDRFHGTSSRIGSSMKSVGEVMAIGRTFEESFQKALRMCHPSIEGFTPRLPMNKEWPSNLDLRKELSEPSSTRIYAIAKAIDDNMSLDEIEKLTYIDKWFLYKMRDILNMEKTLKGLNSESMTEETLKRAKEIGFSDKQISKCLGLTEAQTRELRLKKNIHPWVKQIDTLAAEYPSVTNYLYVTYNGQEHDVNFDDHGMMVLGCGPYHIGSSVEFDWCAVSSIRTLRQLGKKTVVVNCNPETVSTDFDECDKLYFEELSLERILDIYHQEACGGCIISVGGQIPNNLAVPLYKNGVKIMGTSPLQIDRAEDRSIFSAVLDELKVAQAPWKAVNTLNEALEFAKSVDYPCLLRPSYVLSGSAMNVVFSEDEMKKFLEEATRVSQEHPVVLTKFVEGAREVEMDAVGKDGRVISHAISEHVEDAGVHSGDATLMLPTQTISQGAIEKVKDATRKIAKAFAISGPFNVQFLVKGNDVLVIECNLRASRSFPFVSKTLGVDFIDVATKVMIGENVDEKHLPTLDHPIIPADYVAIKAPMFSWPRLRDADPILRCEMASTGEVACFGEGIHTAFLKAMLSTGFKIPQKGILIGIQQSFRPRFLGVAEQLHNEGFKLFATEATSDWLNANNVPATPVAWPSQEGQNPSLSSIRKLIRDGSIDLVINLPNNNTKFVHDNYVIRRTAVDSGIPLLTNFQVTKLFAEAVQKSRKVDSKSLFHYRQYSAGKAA
Put plainly: ADP-Glo endpoint assay measuring the ATPase activity of CPS1. To be noted: geometric mean of a minimum of two values; 50 nM CPS1, 10 μM ATP, 0.2 mM NAG, 60 min at room temperature; read-out: ADPGlo IC50. It counts as biochemical. On the procedure: CPS1 was expressed and purified from SF21 insect cells. The full length, human CPS1 gene was cloned into pFastBac HTA and baculovirus was generated using the Bac-to-bac expression system from Invitrogen. P3 virus was used to infect SF21 insect cells at a density of 1.5E6 cells/mL at an MOI of 2. Cells were harvested by centrifugation after 60 hrs and the cell pellet resuspended in lysis buffer (50 mM glycyl glycine pH 7.4, 20 mM KCl, 1 mM TCEP, 10% glycerol and 20 mM imidazole with Roche protease inhibitor tablet) before being lysed with 40 strokes of a Dounce homogenizer on ice. The insoluble fraction of the lysate was then cleared by centrifugation at 30,000 rpm for 30 min. 40 mL of supernatant was mixed with 2 mL of Ni NTA beads for 45 min at 4° C. in a 50 mL conical tube.
The beads were washed with 40 mL of wash buffer (50 mM glycyl glycine pH 7.4, 500 mM NaCl, 1 mM TCEP, 10% glycerol and 50 mM imidazole) by centrifugation and resuspension of the beads three times. Bound CPS1 protein was eluted in 6 mL of elution buffer (50 mM glycyl glycine pH 7.4, 500 mM NaCl, 1 mM TCEP, 10% glycerol and 250 mM imidazole) three times. Elution fractions were combined and concentrated using an Amicon Ultra centrifugation filter with a 10,000 molecular weight cut off. Imidazole was removed by repeated concentration and resuspension in storage buffer in the filter device (50 mM glycyl glycine pH 7.4, 500 mM NaCl, 1 mM TCEP and 20% glycerol). CPS1 was concentrated to a final concentration of ˜3 mg/mL before being aliquoted, flash frozen in liquid nitrogen and stored at −80° C.
CPS1 activity was measured and compounds profiled in an endpoint assay measuring the ATPase activity of CPS1 using the ADP-Glo kit from Promega. 50 nM CPS1 was incubated alone or with varying amounts of tested compound from DMSO stocks in assay buffer (50 mM HEPES pH 7.0, 12.5 mM KHCO3, 1.5 mM (NH4)2SO3, 5 mM MgCl2, 50 mM KCl, 1 mM TCEP, 0.01% TritonX 100, 0.0025% BSA and 0.2 mM NAG) for 20 min in a 3 μL volume in a 384-well plate (Corning Cat#3820). The final concentration of DMSO was 0.04%. The reaction was initiated by the addition of 10 μM ATP, bringing the final volume to 6 μL. After 60 min at room temperature, the reaction was terminated with 3 μL ADP-Glo reagent and incubated at room temperature for 30 min. 3 μL of kinase detection reagent was then added and luminescent signal measured on an Envision plate reader after 30 min.
In general terms: In ADP-Glo the light output rises with the ADP produced.
One may read the IC50 as the concentration at which inhibition is half-maximal. Take `COc1ccc(C(=O)N2[C@H](C)CN(C(=O)c3ccc(N(C)C)cc3F)C[C@H]2C)c(F)c1` [Compound 20, ((2R,6R)-4-(4-(Dimethylamino)-2-fluorobenzoyl)-2,6-dimethylpiperazin-1-yl)(2-fluoro-4-methoxyphenyl)methanone]: the half-maximal inhibitory concentration (IC50) amounted to 3960 nM.
Take `COc1ccc(C(=O)N2[C@H](C)CN(C(=O)c3ccc4c(c3)CCO4)C[C@H]2C)c(F)c1` [Compound 21, ((2R,6R)-4-(2,3-Dihydrobenzofuran-5-carbonyl)-2,6-dimethylpiperazin-1-yl)(2-fluoro-4-methoxyphenyl)methanone]: the IC50 amounted to 7450 nM.
As for `COc1ccc(C(=O)N2C[C@@H](C)N(C(=O)c3ccc(C)cc3F)[C@H](C)C2)c(F)c1` [Compound 22, ((2R,6R)-4-(2-Fluoro-4-methoxybenzoyl)-2,6-dimethylpiperazin-1-yl)(2-fluoro-4-methylphenyl)methanone], the IC50 came to 358 nM.
On to `COc1ccc(C(=O)N2C[C@@H](C)N(C(=O)c3cc(F)c(OC)cc3F)[C@H](C)C2)c(F)c1` [Compound 23, ((3R,5R)-4-(2,5-Difluoro-4-methoxybenzoyl)-3,5-dimethylpiperazin-1-yl)(2-fluoro-4-methoxyphenyl)methanone], for which the IC50 was 1190 nM.
Then `COc1ccc(C(=O)N2C[C@@H](C)N(C(=O)c3ccc(OCc4ccccc4)cc3F)[C@H](C)C2)c(F)c1` [Compound 24, ((3R,5R)-4-(4-(Benzyloxy)-2-fluorobenzoyl)-3,5-dimethylpiperazin-1-yl)(2-fluoro-4-methoxyphenyl)methanone], with 995 nM; and `COc1ccc(C(=O)N2C[C@@H](C)N(C(=O)c3c(F)cc(SC)cc3F)[C@H](C)C2)c(F)c1` [Compound 25, ((3R,5R)-4-(2,6-difluoro-4-(methylthio)benzoyl)-3,5-dimethylpiperazin-1-yl)(2-fluoro-4-methoxyphenyl)methanone], with 255 nM.
As to `COc1ccc(C(=O)N2C[C@@H](C)N(C(=O)c3ccc(OC)cc3F)[C@H](C)C2)c(F)c1` [Compound 26, ((2R,6R)-2,6-Dimethylpiperazine-1,4-diyl)bis((2-fluoro-4-methoxyphenyl)methanone)], the IC50 amounted to 362 nM.
To `CCOc1ccc(C(=O)N2[C@H](C)CN(C(=O)c3ccc(OC)cc3F)C[C@H]2C)c(F)c1` [Compound 27, ((3R,5R)-4-(4-Ethoxy-2-fluorobenzoyl)-3,5-dimethylpiperazin-1-yl)(2-fluoro-4-methoxyphenyl)methanone] belongs 414 nM; to `COc1ccc(C(=O)N2C[C@@H](C)N(C(=O)c3c(C)cc(OC)cc3F)[C@H](C)C2)c(F)c1` [Compound 28, ((3R,5R)-4-(2-Fluoro-4-methoxy-6-methylbenzoyl)-3,5-dimethylpiperazin-1-yl)(2-fluoro-4-methoxyphenyl)methanone], 909 nM.
To `COc1ccc(C(=O)N2C[C@@H](C)N(C(=O)c3ccc(OC)c(F)c3)[C@H](C)C2)c(F)c1` [Compound 29, ((2R,6R)-4-(2-Fluoro-4-methoxybenzoyl)-2,6-dimethylpiperazin-1-yl)(3-fluoro-4-methoxyphenyl)methanone] belongs 2300 nM; to `COc1ccc(C(=O)N2C[C@@H](C)N(C(=O)c3ccc(OC(C)C)cc3F)[C@H](C)C2)c(F)c1` [Compound 30, ((3R,5R)-4-(2-fluoro-4-isopropoxybenzoyl)-3,5-dimethylpiperazin-1-yl)(2-fluoro-4-methoxyphenyl)methanone], 1470 nM.
Then `COc1ccc(C(=O)N2C[C@@H](C)N(C(=O)c3ccc(OC(F)(F)F)cc3F)[C@H](C)C2)c(F)c1` [Compound 31, ((3R,5R)-4-(2-fluoro-4-(trifluoromethoxy)benzoyl)-3,5-dimethylpiperazin-1-yl)(2-fluoro-4-methoxyphenyl)methanone], with 1190 nM; and `COc1ccc(C(=O)N2C[C@@H](C)N(C(=O)c3ccc(F)cc3F)[C@H](C)C2)c(F)c1` [Compound 32, ((3R,5R)-4-(2,4-difluorobenzoyl)-3,5-dimethylpiperazin-1-yl)(2-fluoro-4-methoxyphenyl)methanone], with 1440 nM; and `COc1ccc(C(=O)N2C[C@@H](C)N(C(=O)c3ccc(OC(F)F)cc3F)[C@H](C)C2)c(F)c1` [Compound 33, ((3R,5R)-4-(4-(difluoromethoxy)-2-fluorobenzoyl)-3,5-dimethylpiperazin-1-yl)(2-fluoro-4-methoxyphenyl)methanone], with 2540 nM.
For `COc1ccc(C(=O)N2C[C@@H](C)N(C(=O)c3ccc(OC)c(F)c3F)[C@H](C)C2)c(F)c1` [Compound 34, ((3R,5R)-4-(2,3-Difluoro-4-methoxybenzoyl)-3,5-dimethylpiperazin-1-yl)(2-fluoro-4-methoxyphenyl)methanone], the IC50 was determined as 387 nM.
As to `COc1ccc(C(=O)N2[C@H](C)CN(C(=O)c3ccc4c(c3)NC(=O)CO4)C[C@H]2C)c(F)c1` [Compound 35, 6-((3R,5R)-4-(2-Fluoro-4-methoxybenzoyl)-3,5-dimethylpiperazine-1-carbonyl)-2H-benzo[b][1,4]oxazin-3(4H)-one], the IC50 worked out at 7970 nM.
Then `COc1ccc(C(=O)N2[C@H](C)CN(C(=O)c3c[nH]c4c(Cl)cccc34)C[C@H]2C)c(F)c1` [Compound 36, (7-Chloro-1H-indol-3-yl)((3R,5R)-4-(2-fluoro-4-methoxybenzoyl)-3,5-dimethylpiperazin-1-yl)methanone], with 1150 nM; and `COc1ccc(C(=O)N2[C@H](C)CN(C(=O)c3cnc4cc[nH]c4c3)C[C@H]2C)c(F)c1` [Compound 37, ((2R,6R)-2,6-Dimethyl-4-(1H-pyrrolo[3,2-b]pyridine-6-carbonyl)piperazin-1-yl)(2-fluoro-4-methoxyphenyl)methanone], with 2510 nM.
For `COc1ccc(C(=O)N2[C@H](C)CN(C(=O)c3ccc4nc[nH]c4c3)C[C@H]2C)c(F)c1` [Compound 38, ((2R,6R)-4-(1H-Benzo[d]imidazole-5-carbonyl)-2,6-dimethylpiperazin-1-yl)(2-fluoro-4-methoxyphenyl)methanone], the IC50 was found to be 4910 nM.
